Data set [1] in a line: Oral Bioavailability (PO) and Pharmacokinetics Assay. It counts as in vivo, Sprague-Dawley rats. Particulars: rat; for AUC(0-t) / clearance / C0 (back-extrapolated initial plasma concentration after IV dose) / Vd: male, Sprague-Dawley, plasma; for C0 (back-extrapolated initial plasma concentration after IV dose): read-out: C0 or Cmax (ng/mL): C0; for Vd: iv, read-out: Vss; for Vd / Vss: 1 mg/kg. The method, then: The pharmacokinetics and oral bioavailability of various compounds was evaluated following IV or PO administration to fasted male Sprague-Dawley rats (N=3/route/dose). Each compound was administered to fasted male Sprague-Dawley rats as a single dose of 1 mg/kg (IV) or 5 mg/kg (PO). For IV dosing, each compound was formulated in 10% DMA/15% Solutol/75% HPβ-CD (20%) as a 1 mg/mL solution for IV (1 mL/kg) and for PO (5 mL/kg) administrations.
Blood samples (0.250 mL) were collected into EDTA tubes then processed to generate plasma samples. Blood samples were collected at pre-dose, 0.083, 0.25, 0.5, 1, 2, 4, 8 and 24 hours post-dose administration. Plasma concentrations of each compound were determined using LC-MS/MS with a lower limit of quantitation of 1.0 ng/mL. The pharmacokinetic parameters were determined by non-compartmental methods using WinNonlin.
The pharmacokinetic parameters of each compound were determined by non-compartmental analysis (Model 201 for IV administration and Model 200 for PO administration) using WinNonlin Version 6.4 (Pharsight, Mountain View, Calif.). The area under the curve from the time of dosing to the last measurable concentration, AUC(0-t), was calculated by the linear trapezoidal rule. The area under the concentration-time curve extrapolated to infinity, AUC(0-∞), was calculated as follows: AUC(0-∞)=AUC(0-t)+Clast/k
Where Clast is the last measurable concentration and k is the first order rate constant associated with the terminal elimination phase, estimated by linear regression of log concentration versus time. The half-life (T1/2) of the terminal elimination phase was estimated based on the following equation: T1/2=0.693/k
K was determined based on at least three timepoints with R^2≥0.9. Additional parameters were calculated as follows: CL=Dose/AUC(0-∞)
Where CL is the clearance of An2H compound in L/hr/kg, Dose is the administered dose in mg/kg. Mean residence time (MRT) was calculated as follows: MRT=AUMC(0-∞)/AUC(0-∞)
Where area under the first moment curve extrapolated to infinity (AUMC(0-∞)) was calculated as follows: AUMC(0-∞)=AUMClast+tlast*Clast/k+Clast/k^2
The steady state volume of distribution (Vss) was calculated as follows: Vss=CL×MRT.
The oral bioavailability based on AUC(0-t) was calculated as follows: F (%)=AUCPO/AUCIV×DoseIV/DosePO×100. For IV administration, the initial concentration, Co is reported and is an extrapolated value. For PO administration, the maximum concentration, Cmax is report and is an observed value.

Experiment in data set [2]: as above
The data set is classed as in vivo, Sprague-Dawley rats. Particulars: rat; for Cmax: read-out: C0 or Cmax (ng/mL): Cmax; for half-life: read-out: T½ (converted).

In data set [3] the test system is subcutaneous HCT-116 (colon cancer) xenograft. Nature of the data set: In Vivo Cancer Xenograft Assay, HCT-116. Further details: species or system nude mice. Particulars: 5 or 10 mg/kg daily IP, tumor volume to day 26. The protocol: (§1) Compound F was evaluated for in vivo therapeutic efficacy in the treatment of subcutaneous HCT-116 (colon cancer) and Calu-6 (lung cancer) xenograft models in nude mice.
(§2) Each mouse was inoculated subcutaneously at the flank region with either HCT-116 or Calu-6 tumor cells ([…]) in 0.1 ml of 1×PBS mixed with Matrigel (1:1) for tumor development and xenotransplantation.
(§3) Twenty (20) animals with approx […] tumors were selected for HCT-116 follow up experiment and randomly placed into Groups 1, 2, 3, and 4, wherein Group 1 was for mice administered with a vehicle negative control; Group 2 was positive control of Mice treated with Bevacizumab at 5 mg/kg every three days; Group 3 was mice treated with 5 mg/kg of Compound f daily for up to 20 days; and Group 4 was mice treated with 10 mg/kg of Compound F daily for up to 20 days. The vehicle with or without drug was administered to the mouse by intraperitoneal injection. […]
(§4) After tumor cells inoculation, the animals were checked daily for morbidity and mortality. […] Death and observed clinical signs were recorded. Tumor volumes were measured every three days in two dimensions using an electronic caliper, and the volume data are expressed in mm^3 using the formula: V=0.5 a×b2 where a and b are the long and short diameters of the tumor, respectively. Tumor volume average was then recorded for each day for groups 1-4 until day 26. […]

Data set [4] relates to subcutaneous Calu-6 (lung cancer) xenograft. Nature of the data set: In Vivo Cancer Xenograft Assay, Calu-6. The settings on record: 5 or 10 mg/kg daily IP. The arrangement: species or system nude mice. The protocol: as §1, §2, §3, §4
Where [5] appears, read: male, Sprague-Dawley, plasma, PO 5 mg/kg.
The mark [6] stands for this setting: male, Sprague-Dawley, plasma, PO 5 mg/kg, read-out: F (%) oral bioavailability.
The mark [7] stands for this setting: male, Sprague-Dawley, plasma, iv, 1 mg/kg, IV bolus 1 mg/kg.
The mark [8] stands for this setting: male, Sprague-Dawley, plasma, po, 5 mg/kg, PO 5 mg/kg.
The mark [9] stands for this setting: male, Sprague-Dawley, plasma, IP 3 mg/kg.

SMILES strings stand for the structures. Where two headings read alike, the source gives them in different places.

The term AUC(0-t) denotes the area under the concentration-time curve up to a stated or last time point. A high value points to high exposure. What is called Tmax is the time from dosing to the highest level.

As to `O=C(Nc1nc(NC(=O)c2ccccc2)n(-c2ccccc2)n1)c1ccccc1` [Compound A, N,N′-(1-phenyl-1H-1,2,4-triazole-3,5-diyl)dibenzamide], in data set [1] (IV bolus 1 mg/kg), the area under the curve AUC(0-t) worked out at 1100 ng·h/mL, the clearance stood at 15.7 mL/min/kg, the C0 (back-extrapolated initial plasma concentration after IV dose) was 4520 ng/mL and the Vd was determined as 0.38 L/kg. For the same compound, the “Vss” value in data set [1] (IV bolus 1 mg/kg) turned out to be 0.381 L/kg. Further, the AUC(0-t) in data set [1] (PO 5 mg/kg) came out at 371 ng·h/mL. Besides, in data set [2] (male, Sprague-Dawley, plasma, IV bolus 1 mg/kg, read-out: F (%)), the bioavailability turned out to be 100%. In addition, in data set [2] (setting [5]), the Tmax was found to be 0.417 h and the Cmax came to 249 ng/mL. The bioavailability in data set [2] (setting [6]) turned out to be 6.85%. In data set [2] (setting [7]), the half-life was 0.85 h. In addition, the half-life in data set [2] (setting [8]) is 1.6 h. The “T½” value in data set [2] (PO 5 mg/kg, 5 mg/kg) amounted to 1.62 h.

On to `Cc1ccccc1C(=O)Nc1nc(NC(=O)c2ccccc2)n(-c2ccccc2)n1` [Compound H], for which, in data set [1] (IV bolus 1 mg/kg), the area under the curve AUC(0-t) stood at 1370 ng·h/mL, the clearance was determined as 12.2 mL/min/kg, the C0 (back-extrapolated initial plasma concentration after IV dose) was 6740 ng/mL and the Vd was found to be 0.4 L/kg. The “Vss” value in data set [1] (IV bolus 1 mg/kg) stood at 0.401 L/kg. For the same compound, in data set [1] (PO 5 mg/kg), the exposure AUC(0-t) stood at 410 ng·h/mL. In data set [2] (setting [5]), the Tmax was 1.33 h and the Cmax is 91 ng/mL. Moreover, the bioavailability in data set [2] (setting [6]) came to 6.2%. The half-life in data set [2] (setting [7]) was 0.69 h. In addition, in data set [2] (setting [8]), the half-life is 1.7 h. For the same compound, the “Oral Bioavilability (PO PK) F” value in data set [2] is recorded as “F = 6%”.

As to `Cc1ccccc1C(=O)Nc1nc(NC(=O)c2ccccc2)nn1-c1ccccc1` [Compound K, N-(5-benzamido-2-phenyl-1,2,4-triazol-3-yl)-2-methyl-benzamide], in data set [1] (IV bolus 1 mg/kg), the AUC(0-t) is 902 ng·h/mL, the clearance turned out to be 18.4 mL/min/kg, the C0 (back-extrapolated initial plasma concentration after IV dose) was 2120 ng/mL and the Vd is 0.71 L/kg. In data set [1] (IV bolus 1 mg/kg), the “Vss” value is 0.707 L/kg. This compound gave an area under the curve AUC(0-t) in data set [1] (PO 5 mg/kg) of 172 ng·h/mL. In addition, in data set [2] (setting [5]), the Tmax came out at 0.42 h and the Cmax was determined as 52.4 ng/mL. The bioavailability in data set [2] (setting [6]) stood at 4%. Also, in data set [2] (setting [7]), the half-life is 0.6 h. In addition, the half-life in data set [2] (setting [8]) is 2.1 h. Also, in data set [2], the “Oral Bioavilability (PO PK) F” value was “F = 4%”.

In the case of `Cc1ccccc1C(=O)Nc1nc(NC(=O)c2ccccc2C)n(-c2ccccc2)n1` [Compound F, 2-methyl-N-[5-[(2-methylbenzoyl)amino]-1-phenyl-1,2,4-triazol-3-yl]benzamide], in data set [1] (IV bolus 1 mg/kg), the area under the curve AUC(0-t) is 4270 ng·h/mL, the clearance was found to be 4.03 mL/min/kg, the C0 (back-extrapolated initial plasma concentration after IV dose) was 5980 ng/mL and the Vd was found to be 0.406 L/kg. The “delay of subcutaneous HCT-116 tumor growth” value in data set [3] is recorded as “effective of delaying growth”. The “delay of subcutaneous Calu-6 tumor growth” value in data set [4] is given as “effective of delaying growth”. Besides, in data set [2] (setting [9]), the AUC(0-t) is 9590 ng·h/mL, the Tmax came out at 1.3 h and the Cmax turned out to be 1470 ng/mL. The bioavailability in data set [2] (male, Sprague-Dawley, plasma, IP 3 mg/kg, read-out: F systemic bioavailability) was 75%. The half-life in data set [2] (male, Sprague-Dawley, plasma, ip, 3 mg/kg, IP 3 mg/kg) was 3.2 h. Besides, in data set [2] (setting [7]), the half-life was 2.5 h.

In the case of `O=C(/C=C/c1ccccc1)Nc1nc(NC(=O)c2ccccc2)nn1-c1ccccc1` [Compound C, N-(5-cinnamamido-1-phenyl-1H-1,2,4-triazol-3-yl)benzamide], in data set [1] (IV bolus 1 mg/kg), the AUC(0-t) came to 1030 ng·h/mL, the clearance turned out to be 16.6 mL/min/kg, the C0 (back-extrapolated initial plasma concentration after IV dose) was 3980 ng/mL and the Vd came out at 0.42 L/kg. The “Vss” value in data set [1] (IV bolus 1 mg/kg) is 0.416 L/kg. Moreover, the AUC(0-t) in data set [1] (PO 5 mg/kg) was found to be 114 ng·h/mL. Further, in data set [2] (setting [5]), the Tmax stood at 0.38 h and the Cmax was 50.5 ng/mL. Further, the bioavailability in data set [2] (setting [6]) amounted to 2.4%. For the same compound, the half-life in data set [2] (setting [7]) is 0.71 h. The half-life in data set [2] (setting [8]) was 2.3 h. Also, the “Oral Bioavilability (PO PK) F” value in data set [2] is reported as “F = 2%”.
